Values of other authors as cited in patent US20140147549A1, “CARBOHYDRATE BAR” (NESTEC S.A., priority 2008, published 2014).

Conditions: previous research data, single carbohydrate source alone

## O=C(CO)[C@@H](O)[C@H](O)[C@H](O)CO [fructose]
  peak exogenous carbohydrate oxidation, single carbohydrate source: ~0.4 g/min
